Holding throughout (format): functional
The subject of assay [1] is Staphylococcus aureus. The assay can be described thus: In vitro antibacterial activity against Staphylococcus aureus NCTC 10649 (erythromycin-susceptible strain).
In assay [2] the test system is Streptococcus pneumoniae. Kind of assay: In vitro antibacterial activity against Streptococcus pneumoniae 5649 (efflux-resistant strain bearing a mef (E) gene).
Assay [3] has as its system Streptococcus pneumoniae. Kind of assay: In vitro antibacterial activity against Streptococcus pneumoniae ATCC 6303 (an erythromycin-susceptible strain).
Assay [4] deals with Staphylococcus aureus. Kind of assay: In vitro antibacterial activity against Staphylococcus aureus 1775 (methicillin-resistant strain(MRSA)).
The subject of assay [5] is Streptococcus pneumoniae. The assay can be described thus: In vitro antibacterial activity against Streptococcus pneumoniae 5979 (MLSB resistant stain bearing an erm (B) gene).
Assay [6] has as its system Haemophilus influenzae. Kind of assay: In vitro antibacterial activity against Haemophilus influenzae GYR1435 (fully susceptible strain).

The values below come from ChEMBL document CHEMBL1146813, “Synthesis and antibacterial activity of novel bifunctional macrolides” (2004).

Converted amounts (≈) assume the structure as drawn.

For the molecule `CC[C@H]1OC(=O)[C@H](C)C(=O)[C@H](C)[C@@H](O[C@@H]2O[C@H](C)C[C@H](N(C)C)[C@H]2O)[C@@](C)(OC)C[C@@H](C)C(=O)[C@H](C)[C@@H](O)[C@]1(C)O`, the MIC in assay [1] was 0.5 µg/mL (≈ 0.851 µM); in assay [2] it was 0.12 µg/mL (≈ 0.204 µM); in assay [3], 0.06 µg/mL (≈ 0.102 µM); in assay [4], greater than 128 µg/mL; in assay [5], greater than 128 µg/mL; in assay [6] it was 64 µg/mL (≈ 109 µM).
In the case of `CC[C@H]1OC(=O)[C@H](C)C(=O)[C@H](C)[C@@H](O[C@@H]2O[C@H](C)C[C@H](N(C)C)[C@H]2O)[C@@](C)(OC)C[C@@H](C)/C(=N\OCCNCCCOCCCNCc2ccc(Cl)c(Cl)c2)[C@H](C)[C@@H](O)[C@]1(C)O`, the MIC in assay [1] was 2 µg/mL (≈ 2.17 µM); in assay [2] it was 0.5 µg/mL (≈ 0.543 µM); in assay [3], 0.06 µg/mL (≈ 0.0652 µM); in assay [4] it was greater than 128 µg/mL; in assay [5] it was 0.25 µg/mL (≈ 0.272 µM); in assay [6], 16 µg/mL (≈ 17.4 µM).
For the molecule `CC[C@H]1OC(=O)[C@H](C)C(=O)[C@H](C)[C@@H](O[C@@H]2O[C@H](C)C[C@H](N(C)C)[C@H]2O)[C@@](C)(OC)C[C@@H](C)/C(=N\OCCNCCCOCCCNCc2cnc3ccccc3c2)[C@H](C)[C@@H](O)[C@]1(C)O`, the MIC in assay [1] was 0.5 µg/mL (≈ 0.554 µM); in assay [2], 0.5 µg/mL (≈ 0.554 µM); in assay [3] it was 0.06 µg/mL (≈ 0.0665 µM); in assay [4], greater than 128 µg/mL; in assay [5] it was 0.25 µg/mL (≈ 0.277 µM); in assay [6], 64 µg/mL (≈ 70.9 µM).
Regarding `CC[C@H]1OC(=O)[C@H](C)C(=O)[C@H](C)[C@@H](O[C@@H]2O[C@H](C)C[C@H](N(C)C)[C@H]2O)[C@@](C)(OC)C[C@@H](C)/C(=N\OCCNCCCOCCCNCc2cn(C)c3ccc(F)cc23)[C@H](C)[C@@H](O)[C@]1(C)O`, the MIC in assay [1] was 1 µg/mL (≈ 1.08 µM); in assay [2], 0.06 µg/mL (≈ 0.0651 µM); in assay [3], no more than 0.008 µg/mL; in assay [4] it was 64 µg/mL (≈ 69.4 µM); in assay [5], 4 µg/mL (≈ 4.34 µM); in assay [6], 8 µg/mL (≈ 8.68 µM).
With `CC[C@H]1OC(=O)[C@H](C)C(=O)[C@H](C)[C@@H](O[C@@H]2O[C@H](C)C[C@H](N(C)C)[C@H]2O)[C@@](C)(OC)C[C@@H](C)/C(=N\OCCNCCCOCCCCOCCCNCc2ccc3ccccc3c2)[C@H](C)[C@@H](O)[C@]1(C)O`, the MIC was 32 µg/mL (≈ 32.9 µM) in assay [1]; 1 µg/mL (≈ 1.03 µM) in assay [2]; 0.12 µg/mL (≈ 0.123 µM) in assay [3]; greater than 128 µg/mL in assay [4]; 1 µg/mL (≈ 1.03 µM) in assay [5]; 32 µg/mL (≈ 32.9 µM) in assay [6].
For the molecule `CC[C@H]1OC(=O)[C@H](C)C(=O)[C@H](C)[C@@H](O[C@@H]2O[C@H](C)C[C@H](N(C)C)[C@H]2O)[C@@](C)(OC)C[C@@H](C)/C(=N\OCCNCC2CCC(CNCc3ccc(Oc4ccccc4)cc3)CC2)[C@H](C)[C@@H](O)[C@]1(C)O` (stereo partly specified), the MIC was 4 µg/mL (≈ 4.2 µM) in assay [1]; 0.12 µg/mL (≈ 0.126 µM) in assay [2]; 0.06 µg/mL (≈ 0.0629 µM) in assay [3]; 32 µg/mL (≈ 33.6 µM) in assay [4]; 0.06 µg/mL (≈ 0.0629 µM) in assay [5]; 8 µg/mL (≈ 8.39 µM) in assay [6].
On to `CC[C@H]1OC(=O)[C@H](C)C(=O)[C@H](C)[C@@H](O[C@@H]2O[C@H](C)C[C@H](N(C)C)[C@H]2O)[C@@](C)(OC)C[C@@H](C)/C(=N\OCCNCCCOCCCNCc2ccc(Oc3ccccc3)cc2)[C@H](C)[C@@H](O)[C@]1(C)O`, for which the MIC in assay [1] is 2 µg/mL (≈ 2.12 µM); in assay [2], no more than 0.008 µg/mL; in assay [3] it was no more than 0.008 µg/mL; in assay [4] it was 64 µg/mL (≈ 67.9 µM); in assay [5] it was 0.06 µg/mL (≈ 0.0636 µM); in assay [6] it was 2 µg/mL (≈ 2.12 µM).
On to `CC[C@H]1OC(=O)[C@H](C)C(=O)[C@H](C)[C@@H](O[C@@H]2O[C@H](C)C[C@H](N(C)C)[C@H]2O)[C@@](C)(OC)C[C@@H](C)/C(=N\OCCNCC2CCC(CNCc3cccc(Oc4ccccc4)c3)CC2)[C@H](C)[C@@H](O)[C@]1(C)O` (stereo partly specified), for which the MIC in assay [1] was 4 µg/mL (≈ 4.2 µM); in assay [2] it was 0.12 µg/mL (≈ 0.126 µM); in assay [3], no more than 0.008 µg/mL; in assay [4] it was 64 µg/mL (≈ 67.1 µM); in assay [5], 2 µg/mL (≈ 2.1 µM); in assay [6] it was 8 µg/mL (≈ 8.39 µM).
As for `CC[C@H]1OC(=O)[C@H](C)C(=O)[C@H](C)[C@@H](O[C@@H]2O[C@H](C)C[C@H](N(C)C)[C@H]2O)[C@](C)(OCC=Cc2cnc3ccccc3c2)C[C@@H](C)C(=O)[C@H](C)[C@H]2NC(=O)O[C@@]21C` [CETHROMYCIN], the MIC in assay [1] was 0.12 µg/mL (≈ 0.157 µM); in assay [2], no more than 0.008 µg/mL; in assay [3], no more than 0.008 µg/mL; in assay [4], greater than 128 µg/mL; in assay [5], no more than 0.008 µg/mL; in assay [6], 0.5 µg/mL (≈ 0.653 µM).
For the molecule `CC[C@H]1OC(=O)[C@H](C)[C@@H](O[C@H]2C[C@@](C)(OC)[C@@H](O)[C@H](C)O2)[C@H](C)[C@@H](O[C@@H]2O[C@H](C)C[C@H](N(C)C)[C@H]2O)[C@](C)(O)C[C@@H](C)C(=O)[C@H](C)[C@@H](O)[C@]1(C)O` [ERYTHROMYCIN], the MIC in assay [1] is 0.25 µg/mL (≈ 0.341 µM); in assay [2], 4 µg/mL (≈ 5.45 µM); in assay [3], 0.03 µg/mL (≈ 0.0409 µM); in assay [4] it was greater than 128 µg/mL; in assay [5], greater than 128 µg/mL; in assay [6] it was 2 µg/mL (≈ 2.73 µM).
As to `CC[C@H]1OC(=O)[C@H](C)C(=O)[C@H](C)[C@@H](O[C@@H]2O[C@H](C)C[C@H](N(C)C)[C@H]2O)[C@](C)(OC)C[C@@H](C)C(=O)[C@H](C)[C@H]2N(CCCCn3cnc(-c4cccnc4)c3)C(=O)O[C@]12C` [TELITHROMYCIN], the MIC was 0.06 µg/mL (≈ 0.0739 µM) in assay [1]; 0.25 µg/mL (≈ 0.308 µM) in assay [2]; no more than 0.008 µg/mL in assay [3]; greater than 128 µg/mL in assay [4]; 0.06 µg/mL (≈ 0.0739 µM) in assay [5]; 2 µg/mL (≈ 2.46 µM) in assay [6].
